# Source: ChEMBL document CHEMBL4342457, “Clerodane Diterpenoids Isolated from the Leaves of Casearia graveolens” (J Nat Prod, 2020)
# pIC50: −log10 of the molar value.
# Experiments:
# A549 [1] = assay: Cytotoxicity against human A549 cells after 48 hrs by MTT assay; type: functional, cell-based; conditions: A549, 48 h
# HepG2 = assay: Cytotoxicity against human HepG2 cells after 48 hrs by MTT assay; type: functional, cell-based; conditions: HepG2, 48 h
# A549 [2] = assay: Induction of cell cycle arrest in human A549 cells assessed as accumulation at G1 phase at 1 uM incubated for 48 hrs by propidium iodide staining based flow cytometry (reference value: 29.60%); type: functional
# A549 [3] = assay: Induction of cell cycle arrest in human A549 cells assessed as accumulation at G2 phase at 1.5 uM incubated for 48 hrs by propidium iodide staining based flow cytometry (reference value: 30.41%); type: functional
# A549 [4] = assay: Induction of apoptosis human A549 cells assessed as late apoptotic cells at 4 uM after 48 hrs by Annexin V-FITC/PI double staining based flow cytometric analysis (reference value: 7.4%); type: functional
# A549 [5] = assay: Induction of apoptosis human A549 cells assessed as live cells at 2 uM after 48 hrs by Annexin V-FITC/PI double staining based flow cytometric analysis (reference value: 88%); type: functional
# A549 [6] = assay: Induction of apoptosis human A549 cells assessed as necrotic cells at 2 uM after 48 hrs by Annexin V-FITC/PI double staining based flow cytometric analysis (reference value: 0.3%); type: functional
# A549 [7] = assay: Induction of apoptosis human A549 cells assessed as live cells at 4 uM after 48 hrs by Annexin V-FITC/PI double staining based flow cytometric analysis (reference value: 88%); type: functional
# A549 [8] = assay: Induction of apoptosis human A549 cells assessed as late apoptotic cells at 2 uM after 48 hrs by Annexin V-FITC/PI double staining based flow cytometric analysis (reference value: 7.4%); type: functional
# A549 [9] = assay: Induction of cell cycle arrest in human A549 cells assessed as accumulation at S phase at 2 uM incubated for 48 hrs by propidium iodide staining based flow cytometry (reference value: 39.99%); type: functional
# A549 [10] = assay: Induction of cell cycle arrest in human A549 cells assessed as accumulation at G1 phase at 2 uM incubated for 48 hrs by propidium iodide staining based flow cytometry (reference value: 29.60%); type: functional
# A549 [11] = assay: Induction of apoptosis human A549 cells assessed as early apoptotic cells at 4 uM after 48 hrs by Annexin V-FITC/PI double staining based flow cytometric analysis (reference value: 4.3%); type: functional
# A549 [12] = assay: Induction of apoptosis human A549 cells assessed as early apoptotic cells at 1 uM after 48 hrs by Annexin V-FITC/PI double staining based flow cytometric analysis (reference value: 4.3%); type: functional
# A549 [13] = assay: Induction of apoptosis human A549 cells assessed as necrotic cells at 1 uM after 48 hrs by Annexin V-FITC/PI double staining based flow cytometric analysis (reference value: 0.3%); type: functional
# A549 [14] = assay: Induction of cell cycle arrest in human A549 cells assessed as accumulation at S phase at 1 uM incubated for 48 hrs by propidium iodide staining based flow cytometry (reference value: 39.99%); type: functional
# A549 [15] = assay: Induction of cell cycle arrest in human A549 cells assessed as accumulation at G2 phase at 2 uM incubated for 48 hrs by propidium iodide staining based flow cytometry (reference value: 30.41%); type: functional
# A549 [16] = assay: Induction of cell cycle arrest in human A549 cells assessed as accumulation at G1 phase at 1.5 uM incubated for 48 hrs by propidium iodide staining based flow cytometry (reference value: 29.60%); type: functional
# A549 [17] = assay: Induction of apoptosis human A549 cells assessed as early apoptotic cells at 2 uM after 48 hrs by Annexin V-FITC/PI double staining based flow cytometric analysis (reference value: 4.3%); type: functional
# A549 [18] = assay: Induction of apoptosis human A549 cells after 48 hrs by Annexin V-FITC/PI double staining based flow cytometric analysis; type: functional, cell-based
# A549 [19] = assay: Induction of apoptosis human A549 cells assessed as necrotic cells at 4 uM after 48 hrs by Annexin V-FITC/PI double staining based flow cytometric analysis (reference value: 0.3%); type: functional
# A549 [20] = assay: Induction of cell cycle arrest in human A549 cells assessed as accumulation at G2 phase at 1 uM incubated for 48 hrs by propidium iodide staining based flow cytometry (reference value: 30.41%); type: functional
# A549 [21] = assay: Induction of cell cycle arrest in human A549 cells assessed as accumulation at S phase at 1.5 uM incubated for 48 hrs by propidium iodide staining based flow cytometry (reference value: 39.99%); type: functional
# A549 [22] = assay: Induction of apoptosis human A549 cells assessed as live cells at 1 uM after 48 hrs by Annexin V-FITC/PI double staining based flow cytometric analysis (reference value: 88%); type: functional
# A549 [23] = assay: Induction of apoptosis human A549 cells assessed as late apoptotic cells at 1 uM after 48 hrs by Annexin V-FITC/PI double staining based flow cytometric analysis (reference value: 7.4%); type: functional
smiles,measurement,setting,value
C=C/C(C)=C/C[C@]1(C)[C@H](C)C[C@H](O)[C@@]23C(=C[C@H](OC(=O)CC(C)C)C[C@@H]12)[C@@H](OC)O[C@H]3OC,pIC50,A549 [1],< 5.00
same,pIC50,HepG2,< 5.00
C=C/C(C)=C/C[C@]1(C)[C@H](C)C[C@H](O)[C@@]23C(=C[C@@H](OC(=O)C(C)CC)C[C@@H]12)[C@@H](OC)O[C@H]3OC(C)=O (some centres not stated),pIC50,A549 [1],< 5.00
same,pIC50,HepG2,< 5.00
COC(=O)C[C@](O)(CCCC(C)(C)O)C(=O)O[C@@H]1C(OC)=C[C@]23CCCN2CCc2cc4c(cc2[C@H]13)OCO4 [OMACETAXINE MEPESUCCINATE],pIC50,A549 [1],7.50
same,pIC50,HepG2,7.46
C=C/C(C)=C/C[C@]1(C)[C@H](C)C[C@H](O)[C@@]23C(=C[C@H](OC(=O)C(C)C)C[C@@H]12)[C@@H](OC)O[C@H]3OC(C)=O,pIC50,A549 [1],< 5.00
same,pIC50,HepG2,< 5.00
C=C/C(C)=C/C[C@]1(C)[C@H](C)C[C@H](O)[C@@]23C(=C[C@H](OC(=O)C(C)C)C[C@@H]12)[C@@H](OC)O[C@@H]3OC(C)=O,pIC50,A549 [1],< 5.00
same,pIC50,HepG2,< 5.00
C=C/C(C)=C/C[C@]1(C)[C@H](C)C[C@H](O)[C@@]23C(=C[C@H](OC(=O)C(C)C)C[C@@H]12)[C@@H](OC)O[C@H]3OC,pIC50,A549 [1],< 5.00
same,pIC50,HepG2,< 5.00
C=C/C(C)=C/C[C@]1(C)[C@H](C)C[C@H](O)[C@@]23C(=C[C@H](OC(=O)CC(C)C)C[C@@H]12)[C@@H](OC(C)=O)O[C@H]3OC(C)=O,Activity,A549 [2],70.25%
same,Activity,A549 [3],4.3%
same,Activity,A549 [4],74.5%
same,Activity,A549 [5],52.7%
same,pIC50,A549 [1],5.72
same,Activity,A549 [6],0.8%
same,Activity,A549 [7],5.4%
same,pIC50,HepG2,5.34
same,Activity,A549 [8],19.9%
same,Activity,A549 [9],15.37%
same,Activity,A549 [10],79.44%
same,Activity,A549 [11],15%
same,Activity,A549 [12],6.2%
same,Activity,A549 [13],1.1%
same,Activity,A549 [14],20.75%
same,Activity,A549 [15],5.19%
same,Activity,A549 [16],70.31%
same,Activity,A549 [17],26.7%
same,Activity,A549 [18],Dose-dependent effect
same,Activity,A549 [19],5.1%
same,Activity,A549 [20],9.01%
same,Activity,A549 [21],25.39%
same,Activity,A549 [22],74.5%
same,Activity,A549 [23],18.2%
C=C/C(C)=C/C[C@]1(C)[C@H](C)C[C@H](O)[C@@]23C(=C[C@H](OC(=O)CC(C)C)C[C@@H]12)[C@@H](OC)O[C@H]3OC(C)=O,pIC50,A549 [1],< 5.00
same,pIC50,HepG2,< 5.00
C=C/C(C)=C/C[C@]1(C)[C@H](C)C[C@H](O)[C@@]23C(=C[C@@H](OC(C)=O)C[C@@H]12)[C@@H](OC)O[C@H]3OC(C)=O,pIC50,A549 [1],< 5.00
same,pIC50,HepG2,< 5.00
C=C/C(C)=C/C[C@]1(C)[C@H](C)C[C@H](O)[C@@]23C(=C[C@H](OC(=O)C(C)CC)C[C@@H]12)[C@@H](OC)O[C@H]3OC(C)=O (some centres not stated),pIC50,A549 [1],< 5.00
same,pIC50,HepG2,< 5.00
